Laboratory results: patent publication US5157032A, “Mixed ligand complexes and uses thereof as binding agents and probes to DNA” (The Trustees of Columbia University In The City of New York, priority 1990, dated 1992)
Where two headings read alike, the source gives them in different places.

Tests used:
calf thymus DNA [1] = experiment: Equilibrium dialysis of racemic complexes against calf thymus DNA (Scatchard, dialysate CD); assay type: binding; design: Km × 10) equilibrium dialysis (intrinsic binding constant Kb): scale not given here; conditions: for Site size: fit to McGhee and von Hippel equation; for aggregation in solution / binding curve type (cooperativity) / binding affinity for DNA / Enantioselectivity: in words; for binding affinity for DNA: comparative; for Km × 10) equilibrium dialysis (intrinsic binding constant Kb): 5 mM Tris, 50 mM NaCl, pH 7.5, standard deviation in parentheses; for Enantioselectivity: dialysate circular dichroism
Protocol: Equilibrium Dialysis: Equlibrium dialysis of the reacemic metal complexes was perforemd against calf-thymus DNA using procedures described previously. (74) The buffer used was 5 mM Tris, 50 mM NaCl at pH 7.5. Samples were agitated on a shaker bath during equilibration which occurred after three to five days, as determined by control samples containing no DNA. After equilibration, volumes of liquid inside and outside the dialysis bags were determined (approximately 1 and 3 mls, respectively) and circular dichroism of the dialysate was meaxured on a Jasco J-40 spectropolarimeter. Final ruthenium concentration inside and outside the bags were measured by visible absorbance. Data anaylsis was performed on a VAX-780 using non-linear least squares analysis.
Equilibrium Dialysis: Equilibrium binding constants for the metal complexes with DNA may be determined classically by equilibrium dialysis. Calf thymus DNA was dialyzed against the series of mixed ligand complexes using a broad range of ruthenium concentrations. […] The results have been plotted according to Scatchard (88), where r is the ratio of bound metal to DNA-phosphate concentration, and cf is the concentration of free metal complex. The data were fit by non-linear least squares analysis to the McGhee and von Hippel equation (8945) governing random non-cooperative binding to a lattice,
where r is the ratio of bound concentration of ruthenium to the concentration of DNA-phosphate, cf is the concentration of ruthenium free in soltuion, Kb the intrinsic binding constant, and the integer /, which measures the degree of anti-cooperativeity, is the size of a binding site in base pairs. The curves shown reflect the best fit after variation of two parameters: the intrinsic binding constant, Kb, and binding stie size, /. For those complexes were cooperatively was observed, the equation (89) incorporating a cooperativity parameter was used.
Equilibrium dialysis experiments additionally offer the opportunity to examine any enantiomeric selectivities associated with binding. After dialysis of the DNA against the racemic mixture, optical activity observed in the dialysate refelects an enrichment in the dialysate in the less favored enantiomer. For most of the complexes, optical activity was found in the dialysate. Values for the extent of enantiomeric selectivity could not be quanitated in the absence of determinations of DE and assignments of absolute configuration. Assuming that the signs of the circular chroism in the ultraviolet ligand bands are the same for the these ligands as that for the parent phenanthroline complex, (90) we have assigned the absolute configuration of these complexes by comparison to spectra for enantiomers of Ru(phen)3^2+ and have compared levels of enantioselectivity qualitatively through measurements of circular dichroic intensity per rutheium bound. Based upon these assumptions, we find enantionmeric selectivities for the polyridyl complexes to reflect an enrichment in the isomer in the dialysate and the preferential binding of the isomer to the right-handed DNA. This observation is consistent with the preferential intercalation of isomers found earlier for Ru(phen)3^2+ in right-handed B-DNA. (63) We may also compare relative enantioselectivities for different ancillary ligands. […] The same comparison may be seen qualitatively between Ru(phen)2 DIP^2+ and Ru(bpy)2 DIP^2+.

calf thymus DNA [2] = experiment: Absorption titration with calf thymus DNA (half-reciprocal, hypochromism); assay type: binding; conditions: in words; for binding to DNA: absorption changes too small for Kb
Source text: In plots of [DNA]/(εA -εF) versus [DNA], Kb is given by the ratio of the slope to intercept.

calf thymus DNA [3] = experiment: Spectroscopic properties (absorption, emission, lifetime) on binding to calf thymus DNA; conditions: for Emission Enchantment (I/Io): 7 μM Ru, 40:1 nucleotide/metal, 20° C.
Protocol: Instrumentation: NMR spectra were recorded on a Varian VXR-300MHz spectormeter. FABS were performed using a VG Analytical 7070EQ Mas Spectrometer (78), and elemental analyses were done by Galbraith Laboratories in Nashville, Tenn. UV-Visible absorbance spectal were recorded on a Varian CARY-219 absorbance spectorphotometer. Extinction coefficients for the compounds were determined versus ruthenium concentrations obtained by atomic absorption spectroscopy with known ruthenium standards. [Ru(bpy)3 ]Cl2 solutions were also employed for these determinations as an internal standard. A varian AA-875 atomic absorption spectrophotometer was used for these determinations.
Emission spectra were measured on a Perkin-Elmer LS-5 fluorescence spectrometer. The samples were excited at their corresponding isosbestic points. All the measurements were made at 20° C. in a thermostatted cuvette holder with 3 nm entrance slit and 10 nm exit slit. Ruthenium solutions employed were 7 μM in concentration and claf thymus DNA was added to a ration of 40:1 nucleotide/metal; ruthenuim-DNA soltuions were allowed to incubate for 15 minutes before enhanced spectra were recorded. The emission enhancement factors were measured by comparing the intensitites at the emission spectral mixima in the absence ad presence of DNA, under similar conditions.
The limunescence lifetime measurements were done on a PRA SPC (single photon countining) spectometer with some minor modifications. The samples were excited with a nitrogen filled tnynratron gated flash lamp and the data were collected using a Tracor Northern 1710 multichannel analyser. The data were then transferred to a PDP-11/03 computer and deconvoluted with PRA software. […] concentrated solution of DNA (5mM DNA-phosphate) in buffer was added to a solution of the metal complex (4 μM) in buffer and allowed to equilibrate. Lifetimes of the samples were measured 0.5 hr after the metal complexes were mixed with DNA. All measurements were made at 20° C. and under air saturated conditions.
Furthermore, for all the complexes, this electronic transition is perturbed on binding to DNA.

Solubility in buffer = assay type: physicochemical; conditions: for Solubilities in Buffer: chloride salts, 5 mM Tris, 50 mM NaCl, pH 7.5, 24 hrs., 25° C., SD in parentheses; for solubility: in words
Protocol: Measurement of Solubilities: Solubilities of the compounds wre measured by preparing saturated solutions of metal complex in buffer (50mM NaCl, 5 mM Tris, pH 7.5) and allowng the suspensions to equilibrate for 24 hours at 25 C. After that time, the solutions were spun down in an Eppendorff microcentrifuge at 15,000 rev/min for 2 minutes and the supernatant was carefully removed by pipette. After dilution, the ruthenuim concentrattions were measured by UV-visible absorbance.

B-form DNA = conditions: cited from earlier work
pBR322 DNA = experiment: Unwinding of supercoiled pBR322 DNA (topoisomerase I assay); conditions: for EC50: read-out: Unwinding concentration, needed to unwind 11 of 22 supercoils, [DNA] 47 μM for phi complexes, 31.5 μM others, 60 min

Row | SMILES | Site size (calf thymus DNA [1]) | aggregation in solution (calf thymus DNA [1]) | binding affinity for DNA (calf thymus DNA [1]) | hypochromism / absorption change on DNA addition (calf thymus DNA [2]) | Emission Enchantment (I/Io) (calf thymus DNA [3]) | Solubilities in Buffer (Solubility in buffer) | binding to DNA (calf thymus DNA [2]) | EC50 (pBR322 DNA) | further results
1 | [Ru+2].c1ccc(-c2ccnc3c2ccc2c(-c4ccccc4)ccnc23)cc1.c1ccc(-c2ccnc3c2ccc2c(-c4ccccc4)ccnc23)cc1.c1cnc2c(c1)ccc1cccnc12 [Ru(DIP)2 (phen)^2+] | cooperative | tend to agfregate in solution | binding similar to that of Ru(phen2 DIP^2+ | greatest change in absorption | 2.14 I/Io | 0.18 (.01) mM |  |  | binding curve type (cooperativity) (calf thymus DNA [1]): cooperatiove binding; solubility (Solubility in buffer; listed as Ru(DIP)2 (phen)2): only sparingly soluble in the buffer solution; solubility (Solubility in buffer; listed as Ru(DIP)2)phen)^2+): too insoluble
2 | [Ru+2].c1ccc(-c2ccnc3c2ccc2c(-c4ccccc4)ccnc23)cc1.c1ccc(-c2ccnc3c2ccc2c(-c4ccccc4)ccnc23)cc1.c1ccc(-c2ccnc3c2ccc2c(-c4ccccc4)ccnc23)cc1 [Ru(DIP)3^2+, reference compound] |  | extensive aggregation | appear to bind DNA more avidly |  |  |  |  |  | enantiomer selectively bound by B-form DNA (B-form DNA): Δ-enantiomers
3 | [Ru+2].c1ccc(-c2ccccn2)nc1.c1ccc(-c2ccccn2)nc1.c1cnc2c(c1)ccc1cccnc12 [Ru(bpy)2 (phen)^2+] | 10-14 base pairs |  |  | litle hypochromic effect | 1.12 I/Io |  | bound very weakly | 69 µM | Km × 10) equilibrium dialysis (intrinsic binding constant Kb) (calf thymus DNA [1]): 0.7(.07) × 10
4 | [Ru+2].c1ccc(-c2ccccn2)nc1.c1ccc(-c2ccccn2)nc1.c1ccc(-c2ccccn2)nc1 [Ru(bpy)3^2+, reference compound] | 6-12 base pairs |  |  | litle hypochromic effect | 1.06 I/Io |  | bound very weakly | 650 µM | Km × 10) equilibrium dialysis (intrinsic binding constant Kb) (calf thymus DNA [1]): 0.7(.13) × 10; intercalation (calf thymus DNA [3]; in words): neither intercalates nor surface-binds to the helix; unwinding of the helix (pBR322 DNA; in words): shows little significant unwinding of the helix
5 | [Ru+2].c1ccc(-c2ccnc3c2ccc2c(-c4ccccc4)ccnc23)cc1.c1cnc2c(c1)ccc1cccnc12.c1cnc2c(c1)ccc1cccnc12 [Ru(phen)2 (DIP)^2+] | cooperative | tend to agfregate in solution |  | greatest change in absorption | 2.06 I/Io | 9. (1.2) mM |  | 9 µM | binding curve type (cooperativity) (calf thymus DNA [1]): cooperatiove binding; solubility (Solubility in buffer): only sparingly soluble in the buffer solution
6 | O=C1c2cccnc2-c2ncccc21.[Ru+2].c1cnc2c(c1)ccc1cccnc12.c1cnc2c(c1)ccc1cccnc12 [Ru(phen)2 (flone)^2+, [Ru(phen)2 (4,5-diazafuorene-9-one)]Cl2] | 9-12 base pairs |  | indistinguishable from that for Ru(phen)2 bpy^2+ |  |  | 60. (2.2) mM | bound very weakly |  | Enantioselectivity (calf thymus DNA [1]): no enantiomeric discrimination is apparent; Enantioselectivity (calf thymus DNA [1]; listed as Ru(phen) (flone)Cl): none; binding affinity for DNA (calf thymus DNA [1]; listed as Ru(phen)^2+2. flone): much lower than would be expected based upon their solvent accessible surfaces
7 | N=C1C(=N)c2ccccc2-c2ccccc21.[Ru+2].c1cnc2c(c1)ccc1cccnc12.c1cnc2c(c1)ccc1cccnc12 [Ru(phen)2 (phi)^2+] | 2-3 base pairs |  |  | hypochromism and a large red shift |  | 0.17 (.01) mM |  | 1.2 µM | intensity in circular dichroism per ruthenium bound (calf thymus DNA [1]; relative to Ru(bpy)2 phi^2+): more than three times greater; Unwinding Angle (pBR322 DNA): 26 °; Unwinding Angle (pBR322 DNA; per molecule of bound complex): 26 degrees
8 | [Ru].c1cnc2c(c1)ccc1cccnc12.c1cnc2c(c1)ccc1cccnc12.c1cnc2c(c1)ccc1cccnc12 [Ru(phen)3^2+, reference compound] | 4 base pairs |  |  |  | 1.87 I/Io | 159. (5.3) mM |  | 9 µM | enantiomer selectively bound by B-form DNA (B-form DNA): Δ-enantiomers; Unwinding Angle (pBR322 DNA): 19 °; Unwinding Angle (pBR322 DNA; per molecule of bound complex): 19 degrees
